Reference: patent publication US11622991B2, “Protocol for treatment of lupus nephritis” (Aurinia Pharmaceuticals Inc., priority 2017, dated 2023)

Test system: lupus nephritis
Assay: Predictability from early reduction in UPCR or C3/C4 normalization combined at 12 weeks (Tables 13-17)
Format: in vivo, human
From the text: PR is defined as at least 50% reduction in proteinuria (i.e. UPCR).
Sensitivity is defined as the probability that a subject showing PR at 48 weeks would have shown a favorable result with regard to the marker at the designated early time point. In the tables below, this is the ratio of the number of subjects with favorable marker results (early drop or normalization) to the total subjects with 48 week PR.
Specificity is defined as the probability that a subject not showing PR at 48 weeks would have shown an unfavorable result with regard to the marker at the designated early time point. In the tables below, this is the ratio of the number of subjects with unfavorable marker results (no early drop or no normalization) to the total subjects with no 48 week PR.
Positive predictive value is defined as the probability that a subject showing a favorable result with respect to the marker at an earlier time point would show PR at 48 weeks. In the tables below, this is the ratio of the number of subjects with favorable marker results who have 48 week PR to those with favorable marker results (early reduction or yes column).
Negative predictive value is defined as the probability that a subject showing an unfavorable result with respect to the marker at an earlier time point would not show PR at 48 weeks. In the tables below, this is the ratio of the number of subjects with unfavorable marker results who have no PR at 48 weeks to the total subjects with unfavorable marker results (no early reduction or no column). […]

[1] = Early 30% reduction in UPCR or C3/C4 normalization, Week 48, 23.7 mg BID, number of patients
[2] = Early 30% reduction in UPCR or C3/C4 normalization, Week 48, 39.5 mg BID, number of patients
[3] = Early 35% reduction in UPCR or C3/C4 normalization, Week 12, 23.7 mg BID, number of patients
[4] = Early 35% reduction in UPCR or C3/C4 normalization, Week 12, 39.5 mg BID, number of patients
[5] = Early 35% reduction in UPCR or C3/C4 normalization, Week 24, 23.7 mg BID, number of patients
[6] = Early 35% reduction in UPCR or C3/C4 normalization, Week 48, 23.7 mg BID, number of patients
[7] = Early 35% reduction in UPCR or C3/C4 normalization, Week 48, 39.5 mg BID, number of patients
[8] = early 15% reduction in UPCR or C3/C4 normalization, week 12, 23.7 mg BID
[9] = early 15% reduction in UPCR or C3/C4 normalization, week 12, 39.5 mg BID
[10] = early 15% reduction in UPCR or C3/C4 normalization, week 24, 23.7 mg BID
[11] = early 15% reduction in UPCR or C3/C4 normalization, week 24, 39.5 mg BID
[12] = early 15% reduction in UPCR or C3/C4 normalization, week 48, 23.7 mg BID
[13] = early 15% reduction in UPCR or C3/C4 normalization, week 48, 39.5 mg BID
[14] = early 20% reduction in UPCR or C3/C4 normalization, week 12, 23.7 mg BID
[15] = early 20% reduction in UPCR or C3/C4 normalization, week 12, 39.5 mg BID
[16] = early 20% reduction in UPCR or C3/C4 normalization, week 24, 23.7 mg BID
[17] = early 20% reduction in UPCR or C3/C4 normalization, week 24, 39.5 mg BID
[18] = early 20% reduction in UPCR or C3/C4 normalization, week 48, 23.7 mg BID
[19] = early 20% reduction in UPCR or C3/C4 normalization, week 48, 39.5 mg BID

SMILES: C=C/C=C/C[C@@H](C)[C@@H](O)[C@H]1C(=O)N[C@@H](CC)C(=O)N(C)CC(=O)N(C)[C@@H](CC(C)C)C(=O)N[C@@H](C(C)C)C(=O)N(C)[C@@H](CC(C)C)C(=O)N[C@@H](C)C(=O)N[C@H](C)C(=O)N(C)[C@@H](CC(C)C)C(=O)N(C)[C@@H](CC(C)C)C(=O)N(C)[C@@H](C(C)C)C(=O)N1C [voclosporin]
- Early Drop or Normal No (Early 30% reduction in UPCR or C3/C4 normalization, Week 24, 39.5 mg BID, number of patients): 10
- Early Drop or Normal No [1]: 2
- No Week 48 Partial Remission, Early Drop or Normal [1]: 9
- No Week 48 Partial Remission, No Early Drop or Normal [1]: 2
- Early Drop or Normal No [2]: 8
- No Week 48 Partial Remission, Early Drop or Normal [2]: 8
- No Week 48 Partial Remission, No Early Drop or Normal [2]: 8
- Early Drop or Normal No [3]: 9
- Week 48 Partial Remission, No Early Drop or Normal [3]: 4
- Early Drop or Normal No [4]: 9
- No Week 48 Partial Remission, No Early Drop or Normal [4]: 3
- Early Drop or Normal No [5]: 4
- No Week 48 Partial Remission, Early Drop or Normal [5]: 10
- No Week 48 Partial Remission, No Early Drop or Normal [5]: 4
- Early Drop or Normal No (Early 35% reduction in UPCR or C3/C4 normalization, Week 24, 39.5 mg BID, number of patients): 10
- Early Drop or Normal No [6]: 3
- No Week 48 Partial Remission, Early Drop or Normal [6]: 8
- No Week 48 Partial Remission, No Early Drop or Normal [6]: 3
- Early Drop or Normal No [7]: 9
- No Week 48 Partial Remission, Early Drop or Normal [7]: 7
- No Week 48 Partial Remission, No Early Drop or Normal [7]: 9
- Early Drop or Normal No [8]: 2
- No Week 48 Partial Remission, No Early Drop or Normal [8]: 1
- Week 48 Partial Remission, No Early Drop or Normal [8]: 1
- No Week 48 Partial Remission, No Early Drop or Normal [9]: 3
- Week 48 Partial Remission, No Early Drop or Normal [9]: 3
- Early Drop or Normal No [10]: 1
- No Week 48 Partial Remission, No Early Drop or Normal [10]: 1
- Early Drop or Normal No [11]: 9
- No Week 48 Partial Remission, No Early Drop or Normal [11]: 4
- Early Drop or Normal No [12]: 1
- No Week 48 Partial Remission, Early Drop or Normal [12]: 10
- No Week 48 Partial Remission, No Early Drop or Normal [12]: 1
- Early Drop or Normal No [13]: 4
- No Week 48 Partial Remission, No Early Drop or Normal [13]: 4
- Early Drop or Normal No [14]: 3
- No Week 48 Partial Remission, No Early Drop or Normal [14]: 2
- Week 48 Partial Remission, No Early Drop or Normal [14]: 1
- No Week 48 Partial Remission, No Early Drop or Normal [15]: 3
- Week 48 Partial Remission, No Early Drop or Normal [15]: 3
- Early Drop or Normal No [16]: 1
- No Week 48 Partial Remission, No Early Drop or Normal [16]: 1
- Early Drop or Normal No [17]: 9
- No Week 48 Partial Remission, No Early Drop or Normal [17]: 4
- Early Drop or Normal No [18]: 1
- No Week 48 Partial Remission, Early Drop or Normal [18]: 10
- No Week 48 Partial Remission, No Early Drop or Normal [18]: 1
- Early Drop or Normal No [19]: 4
- No Week 48 Partial Remission, No Early Drop or Normal [19]: 4
